Data from patent publication US10835500B2, “Medicament for accelerated wound healing” (Symrise AG, priority 2014, dated 2020).

Tests used:
Assay type in all cases: cell-based, human
[1] = tested on: IL-6, IL-8, tumor necrosis factor; test: Quantitative real-time PCR of the other interleukins in HaCaT cells; details: 6 or 24 hours, 500 μM
Experimental: (§1) In order to investigate interleukin secretion, quantitative real-time PCR was first carried out. For this purpose, RNA from HaCaT cells was used that had previously been stimulated for 6 or 24 hours with Sandalore®. Detection was carried out with specific primers of various interleukins (IL-1α, IL-1β, IL-6, IL-8) and tumor necrosis factor (TNF▪). […] In order to corroborate the results, an ELISA assay was carried out, in which the secreted interleukins in the supernatant of the cells can be detected by means of an immunological reaction. By means of the assay used, secretion of the interleukins (IL-1α, IL-1β, IL-2, IL-4, IL-6, IL-8, IL-10, IL-12, and IL-17α), TNFα, γ-interferon (IFNγ), and granulocyte macrophage colony-stimulating factor (GMCSF) was investigated.
(§2) Investigation of interleukin secretion and phosphorylation of Akt protein kinase after Sandalore® stimulation. A) Investigation of the regulation of interleukins in HaCaT cells by means of qRT-PCR after stimulation with Sandalore® (500 μM) for 6 h and 24 h. 0.1% DMSO was used as a control. GAPDH was used as a reference gene, and the relative expression between untreated and stimulated cells was determined. Mean values including standard error. n=3 experiments. […] The measured optical density of the treated cells at 450 nm was expressed relative to the background. […]

HaCaT cells = test: Morphology and propidium iodide staining after 5-day stimulation, HaCaT cells; details: 5-day incubation with 500 μM
Experimental: In order to obtain initial data on possible physiological effects caused by the activation of OR2AT4, HaCaT cells and primary keratinocytes were stimulated for five days with Sandalore®. […] A lethal effect of the odorant can therefore be ruled out (FIG. 16a).
Effect of Sandalore® long-term stimulation on morphology, growth, and migration processes in keratinocytes. A) Phase contrast image and PI stains of HaCaT cells and primary keratinocytes after stimulation with Sandalore® (500 μM) or 0.1% DMSO (control) for five days. On positive PI staining, the cell nuclei are stained red. Scale: 100 μm. B) Evaluation of the proliferation assay carried out with the CyQuant Cell Proliferation Kit on HaCaT cells after 5-day stimulation with 500 μM of Sandalore® or 0.1% DMSO (control). For the RNA interference experiments, the cells were transfected with siRNA or scRNA on the day before Sandalore® stimulation. Shown is the mean cell count including standard error relative to untreated cells. Mann-Whitney U test; n=3 experiments. *: p<0.05; **: p<0.01. S: Sandalore. C) Agarose assay for determination of migration of HaCaT cells. Top: Transmitted light images of HaCaT cells that have migrated in the direction of Sandalore® (500 μM) or 0.1% DMSO. […] The longest path traversed by the cells and the overgrown area were measured and compared to the control (0.1% DMSO). […]

IL-1β = test: Quantitative real-time PCR of IL-1β in HaCaT cells; details: after 24 hours, 500 μM
Experimental: as §1, §2

SMILES: CC1=CCC(CCC(C)C(C)O)C1(C)C (stereo not drawn) [Sandalore®]
- expression rate of the other interleukins [1]: no increase in the expression rate
- morphological changes or PI staining (lethal effect) (HaCaT cells): neither the HaCaT cells nor the keratinocytes showed morphological changes or PI staining
- increase of expression of IL-1β relative to the control (0.1% DMSO) (IL-1β): approx. 1700%
